Source: ChEMBL document CHEMBL3217548, “Biological activity and DNA binding studies of 2-substituted benzimidazo[1,2-a]quinolines bearing different amino side chains” (Medchemcomm, 2013)
Active and inactive are the calls of the source. The rule behind the calls is not given here.

Tests used:
DNA = assay: Induction of DNA damage in plasmid DNA in E. coli S30 cell-free system assessed as inhibition of EGFP translation at 50 uM after 1 hr by fluorescence assay
Homo sapiens = species: Homo sapiens; assay: Inhibition of human DNA topoisomerase 2 assessed as inhibition of DNA cleavage
Calf thymus DNA [1] = assay: Binding affinity to calf thymus DNA assessed as change in melting temperature at 0.5 drug/DNA ratio by spectrophotometry; format: nucleic-acid assay; conditions: Bos taurus
HCT-116 [2] = assay: Cytotoxicity against human HCT116 cells after 72 hrs by MTT assay; format: functional, cell-based; conditions: HCT-116, 72 h
Nucleic Acid = assay: DNA intercalating activity at Escherichia coli pUC19 plasmid assessed as effect on global structure of DNA helix at 5 to 50 uM incubated for 45 mins prior to topoisomerase1 addition by agarose gel electrophoresis; format: nucleic-acid assay
Escherichia coli [3] = assay: Binding affinity to Escherichia coli pUC19 plasmid assessed as nicked DNA at 5 to 50 uM by ethidium bromide staining-based agarose gel electrophoresis
MCF7 = assay: Cytotoxicity against human MCF7 cells after 72 hrs by MTT assay; format: functional, cell-based; conditions: MCF7, 72 h
[4] = Cytotoxicity against human H460 cells after 72 hrs by MTT assay; format: functional, cell-based; conditions: NCI-H460, 72 h
[5] = target: T1, DNA topoisomerase 1 (Homo sapiens) (UniProt P11387); assay: Inhibition of human DNA topoisomerase 1 assessed as inhibition of DNA cleavage
T1 sequence (whole entry): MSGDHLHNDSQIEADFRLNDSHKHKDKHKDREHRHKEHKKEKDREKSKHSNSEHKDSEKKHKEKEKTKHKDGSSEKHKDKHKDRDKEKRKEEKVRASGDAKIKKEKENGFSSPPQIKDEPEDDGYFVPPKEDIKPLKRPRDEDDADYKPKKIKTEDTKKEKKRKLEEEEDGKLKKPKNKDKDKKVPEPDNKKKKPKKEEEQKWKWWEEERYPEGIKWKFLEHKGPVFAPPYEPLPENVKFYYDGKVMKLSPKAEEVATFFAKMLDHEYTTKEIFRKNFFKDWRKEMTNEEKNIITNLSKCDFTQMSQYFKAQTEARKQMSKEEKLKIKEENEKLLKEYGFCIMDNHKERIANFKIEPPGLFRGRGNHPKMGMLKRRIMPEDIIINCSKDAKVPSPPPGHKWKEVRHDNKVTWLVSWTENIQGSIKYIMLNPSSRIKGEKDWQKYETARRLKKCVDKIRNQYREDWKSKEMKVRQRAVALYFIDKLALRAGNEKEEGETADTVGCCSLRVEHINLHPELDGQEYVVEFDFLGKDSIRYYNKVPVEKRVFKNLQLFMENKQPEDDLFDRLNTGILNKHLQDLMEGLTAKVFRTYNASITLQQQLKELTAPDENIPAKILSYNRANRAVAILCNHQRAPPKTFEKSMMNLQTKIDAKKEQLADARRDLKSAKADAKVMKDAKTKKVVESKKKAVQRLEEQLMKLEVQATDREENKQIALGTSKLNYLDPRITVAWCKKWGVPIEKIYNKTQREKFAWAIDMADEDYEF

Calf thymus DNA [6] = assay: Binding affinity to calf thymus DNA assessed as DNA intercalation at 1 to 50 uM by circular dichroism analysis; format: nucleic-acid assay; conditions: Bos taurus
HCT-116 [7] = assay: Cell cycle arrest in human HCT116 cells assessed as accumulation at subG1 phase at 0.1 uM after 24 hrs by propidium iodide staining-based FACS analysis (reference value: 2 +/- 0.1 %); format: functional
HCT-116 [8] = assay: Cell cycle arrest in human HCT116 cells assessed as accumulation at subG1 phase at 1 uM after 24 hrs by propidium iodide staining-based FACS analysis (reference value: 2 +/- 0.1 %); format: functional
HCT-116 [9] = assay: Cell cycle arrest in human HCT116 cells assessed as accumulation at S phase at 0.1 uM after 24 hrs by propidium iodide staining-based FACS analysis (reference value: 48 +/- 6 %); format: functional
Calf thymus DNA [10] = assay: Binding affinity to calf thymus DNA assessed as hypochromic shift at 20 uM by UV/visible spectrophotometry; format: nucleic-acid assay; conditions: Bos taurus
HCT-116 [11] = assay: Cell cycle arrest in human HCT116 cells assessed as accumulation at S phase at 1 uM after 24 hrs by propidium iodide staining-based FACS analysis (reference value: 48 +/- 6 %); format: functional
[12] = Drug uptake in human H460 cell cytoplasm at 10 uM after 2 hrs by fluorescence microscopy; format: ADME, cell-based; conditions: h460, 2 h
HCT-116 [13] = assay: Cell cycle arrest in human HCT116 cells assessed as accumulation at subG1 phase at 5 uM after 24 hrs by propidium iodide staining-based FACS analysis; format: functional
HCT-116 [14] = assay: Cell cycle arrest in human HCT116 cells assessed as accumulation at G2/M phase at 0.1 uM after 48 hrs by propidium iodide staining-based FACS analysis (reference value: 28 +/- 3 %); format: functional
HCT-116 [15] = assay: Cell cycle arrest in human HCT116 cells assessed as accumulation at S phase at 1 uM after 48 hrs by propidium iodide staining-based FACS analysis (reference value: 12+/- 5 %); format: functional
HCT-116 [16] = assay: Cell cycle arrest in human HCT116 cells assessed as accumulation at S phase at 0.1 uM after 48 hrs by propidium iodide staining-based FACS analysis (reference value: 12+/- 5 %); format: functional
HCT-116 [17] = assay: Cell cycle arrest in human HCT116 cells assessed as accumulation at G2/M phase at 1 uM after 48 hrs by propidium iodide staining-based FACS analysis (reference value: 28 +/- 3 %); format: functional
HCT-116 [18] = assay: Cell cycle arrest in human HCT116 cells assessed as accumulation at G1 phase at 0.1 uM after 24 hrs by propidium iodide staining-based FACS analysis (reference value: 23 +/- 2 %); format: functional
HCT-116 [19] = assay: Cell cycle arrest in human HCT116 cells assessed as accumulation at subG1 phase after 24 hrs by propidium iodide staining-based FACS analysis; format: functional
Escherichia coli [20] = assay: Induction of topoisomerase1-mediated Escherichia coli pUC19 plasmid relaxation at 20 to 50 uM incubated for 45 mins prior to topoisomerase1 addition by agarose gel electrophoresis
HCT-116 [21] = assay: Cell cycle arrest in human HCT116 cells assessed as accumulation at subG1 phase at 1 uM after 48 hrs by propidium iodide staining-based FACS analysis (reference value: 5 +/- 2 %); format: functional
HCT-116 [22] = assay: Cell cycle arrest in human HCT116 cells assessed as accumulation at G2/M phase at 0.1 uM after 24 hrs by propidium iodide staining-based FACS analysis (reference value: 29 +/- 8 %); format: functional
HCT-116 [23] = assay: Cell cycle arrest in human HCT116 cells assessed as accumulation at G1 phase at 1 uM after 48 hrs by propidium iodide staining-based FACS analysis (reference value: 60 +/- 2 %); format: functional
HCT-116 [24] = assay: Cell cycle arrest in human HCT116 cells assessed as accumulation at G1 phase at 0.1 uM after 48 hrs by propidium iodide staining-based FACS analysis (reference value: 60 +/- 2 %); format: functional
HCT-116 [25] = assay: Cell cycle arrest in human HCT116 cells assessed as accumulation at G1 phase at 1 uM after 24 hrs by propidium iodide staining-based FACS analysis (reference value: 23 +/- 2 %); format: functional
Escherichia coli [26] = assay: Binding affinity to Escherichia coli pUC19 plasmid assessed as induction of topoisomerase1-mediated DNA relaxation at 1 uM incubated for 45 mins prior to topoisomerase1 addition by agarose gel electrophoresis
HCT-116 [27] = assay: Cell cycle arrest in human HCT116 cells assessed as accumulation at subG1 phase at 0.1 uM after 48 hrs by propidium iodide staining-based FACS analysis (reference value: 5 +/- 2 %); format: functional
HCT-116 [28] = assay: Cell cycle arrest in human HCT116 cells assessed as accumulation at G2/M phase at 1 uM after 24 hrs by propidium iodide staining-based FACS analysis (reference value: 29 +/- 8 %); format: functional

## CC[C@@]1(O)C(=O)OCc2c1cc1n(c2=O)Cc2cc3ccccc3nc2-1
DNA
  inhibition: inactive

## COc1cc([C@@H]2c3cc4c(cc3[C@@H](O[C@@H]3O[C@@H]5CO[C@@H](C)O[C@H]5[C@H](O)[C@H]3O)[C@H]3COC(=O)[C@H]23)OCO4)cc(OC)c1O
DNA
  inhibition: inactive

## CCCCCN(CCCCC)c1ccc2cc(C#N)c3nc4ccccc4n3c2c1
Homo sapiens
  Activity: inactive
Calf thymus DNA [1]
  ΔTm: 0 °C
HCT-116 [2]
  IC50: > 10000 nM
Nucleic Acid
  Activity: inactive
Escherichia coli [3]
  Activity: Active
MCF7
  IC50: 39000 nM
[4]
  IC50: > 10000 nM
[5]
  Activity: inactive
Calf thymus DNA [6]
  Activity: inactive

## CCN(CC)c1ccc2cc(C#N)c3nc4ccccc4n3c2c1
HCT-116 [2]
  IC50: 2000 nM
MCF7
  IC50: 2000 nM
[4]
  IC50: 1600 nM

## CC(C)CNc1ccc2cc(C#N)c3nc4ccccc4n3c2c1
Homo sapiens
  Activity: inactive
HCT-116 [7]
  Activity: 4%
Calf thymus DNA [1]
  ΔTm: 3.8 °C
HCT-116 [8]
  Activity: 16%
HCT-116 [9]
  Activity: 44%
DNA
  inhibition at 50 µM: 17%
Calf thymus DNA [10]
  Activity: Active
HCT-116 [2]
  IC50: 600 nM
HCT-116 [11]
  Activity: 8%
[12]
  Drug uptake: Active
HCT-116 [13]
  Activity: 40%
HCT-116 [14]
  Activity: 17%
HCT-116 [15]
  Activity: 0%
HCT-116 [16]
  Activity: 21%
Escherichia coli [3]
  Activity: Active
HCT-116 [17]
  Activity: 90%
HCT-116 [18]
  Activity: 14%
HCT-116 [19]
  Activity: Dose-dependent effect
Escherichia coli [20]
  Activity: inactive
HCT-116 [21]
  Activity: 30%
HCT-116 [22]
  Activity: 42%
HCT-116 [23]
  Activity: 10%
MCF7
  IC50: 400 nM
[4]
  IC50: 300 nM
HCT-116 [24]
  Activity: 62%
[5]
  Activity: inactive
HCT-116 [25]
  Activity: 7%
Escherichia coli [26]
  Activity: Active
HCT-116 [27]
  Activity: 6%
HCT-116 [28]
  Activity: 85%
Calf thymus DNA [6]
  Activity: inactive

## CCCCNc1ccc2cc(C#N)c3nc4ccccc4n3c2c1
HCT-116 [2]
  IC50: 4000 nM
MCF7
  IC50: 1000 nM
[4]
  IC50: 2000 nM

## N#Cc1cc2ccc(N3CCCCC3)cc2n2c1nc1ccccc12
Homo sapiens
  Activity: inactive
Calf thymus DNA [1]
  ΔTm: 0 °C
HCT-116 [2]
  IC50: 8000 nM
Nucleic Acid
  Activity: inactive
Escherichia coli [3]
  Activity: Active
MCF7
  IC50: 2000 nM
[4]
  IC50: 5000 nM
[5]
  Activity: inactive
Calf thymus DNA [6]
  Activity: inactive
